Laboratory results: patent US20240166686A1, “THERAPEUTIC PEPTIDES” (Kyoto University, priority 2017, published 2024)
Like-named read-outs stand apart in the source and are kept apart here.

Key:
ddY mouse = test: Elevated plus-maze (EPM) test; assay type: in vivo
Procedure: The test was conducted 30 minutes after oral administration of a sample, and the evaluation was conducted based on the 5-minute test time. 23 to 27 g male ddY mice were used as animals to be studied. Cumulative time in open arms was recorded, and the percentage (%) of the time in open arms was used as an index for an anxiolytic-like effect.
The anxiolytic-like effect of a peptide or peptide conjugate can be evaluated by an elevated plus-maze test which has been developed as an anxiety-related behavior evaluation method for screening for anti-anxiety agents and is widely used (FIG. 1). Specifically, a candidate substance is orally or intraperitoneally administered to each mouse. 30 minutes later, the mouse is placed in an elevated plus-maze. The strength of the anxiolytic-like effect can be evaluated by using the number of entries into open arms and change in residence time in the open arms as indexes.
(§1) The elevated plus-maze consists of two open arms (25 cm×5 cm) and two closed arms (25 cm×5 cm×15 cm), and these arms are connected to a central platform elevated by 50 cm from the floor (see FIG. 1). In spite of such an elevated position, mice can walk safely in the closed arms because the closed arms are fenced. On the other hand, mice waking in the open arms feel anxious about falling from the elevated position because the open arms are open without being fenced. Therefore, a longer time when a mouse stays in the open arms means that mouse's feeling of anxiety is more alleviated, and serves as an index for an anxiolytic-like effect.
(§2) As shown in the right diagram of FIG. 1, a sample was administered to each mouse (ddY mouse, male, 23 to 27 g) 30 minutes before the test. 30 minutes later, the mouse was placed on the central platform facing one of the open arms to start the test. Cumulative time in the open arms was recorded during the 5-minute test time. The percentage of the time in the open arms was calculated as an index for an anxiolytic-like effect.
The data obtained by the test was indicated by the sum of a mean and a standard error of the mean (SEM). The data shown in FIGS. 1 to 9, 17, 18, 20, and 21 was analyzed by one-way or two-way ANOVA. Subsequently, study was conducted for multiple comparison by the Tukey Kramer method. P-value of <0.05 is denoted in the drawings as “*”; p-value of <0.01 is denoted in the drawings as “**”.

ddY mice [1] = conditions: general statement on anti-depressant drugs; cited from earlier work
[2] = stated in Non Patent Literature 1; cited from earlier work
ddY mice [3] = test: Tail suspension test; assay type: in vivo, mouse; conditions: 30 min before 6-min suspension
Procedure: Antidepressant-like effect can be evaluated by a tail suspension test. The tail suspension test is an experimental method used to screen potential antidepressant drugs (Can et al., 2012, J Vis Exp., 59:e3769). The amount of time that a mouse is immobile (i.e. is not displaying escape behavior) during the six minutes is measured to provide an immobility time. […] Therefore, if a reduction of immobility time is observed when testing a test substance, it can be concluded that the test substance has anti-depressant properties. Immobility is considered a despair state, and, therefore, a reduction of immobility time also indicates an increase in motivation (i.e., that the test substance has motivation-increasing properties).
The peptide SYLPPLT (SEQ ID NO: 4) was administered orally to mice (ddY mice, males, 24˜30 g) at 0.03 mg/kg, 0.1 mg/kg or 0.3 mg/kg and 30 minutes later the mice were suspended by their tails for six minutes.(n=11 to 14)

[4] = molecular target: T1, serotonin 5-HT1A receptor (Mus musculus, UniProt Q64264); test: Elevated plus-maze test with 5-HT1A receptor antagonist WAY100135; assay type: in vivo; conditions: elevated plus-maze with or without WAY100135
T1 construct: from tissue; host or cells: whole living animal (ddY mouse, male)
T1 sequence (Q64264 1-421): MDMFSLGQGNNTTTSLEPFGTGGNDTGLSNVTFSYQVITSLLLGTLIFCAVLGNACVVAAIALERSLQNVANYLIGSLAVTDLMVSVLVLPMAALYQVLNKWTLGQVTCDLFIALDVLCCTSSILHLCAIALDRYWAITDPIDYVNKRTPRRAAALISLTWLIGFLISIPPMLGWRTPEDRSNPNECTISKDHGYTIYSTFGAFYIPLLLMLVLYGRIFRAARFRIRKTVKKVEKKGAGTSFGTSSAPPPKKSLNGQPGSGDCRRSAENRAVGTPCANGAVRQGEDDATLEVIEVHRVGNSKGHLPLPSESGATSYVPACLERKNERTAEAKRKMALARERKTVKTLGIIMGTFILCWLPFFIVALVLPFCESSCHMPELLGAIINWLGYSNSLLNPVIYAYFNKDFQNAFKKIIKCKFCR
Text: as §1, §2
The peptide SYLPPLTT (SEQ ID NO: 1) or the peptide SYLPPLT (SEQ ID NO: 4) (dose: 1.0 mg/kg) was used in combination with a serotonin 5-HT1A receptor antagonist WAY100135 (dose: 10 mg/kg) and orally administered (p.o.) to each mouse, which was then used in the elevated plus-maze test (n=4 to 6).
The peptide YHIEPV (SEQ ID NO:2) was orally administered as a sample to mice 30 minutes before an elevated plus-maze test, with or without WAY100135, an antagonist selective for 5-HT1A receptor (n=13-15). WAY100135 was administered 50 minutes before the elevated plus-maze test. Separately, the peptide YHIEPV (SEQ ID NO:2) was orally administered as a sample to mice 30 minutes before an elevated plus-maze test, with or without naltrindole, an […] receptor antagonist, which was administered 50 minutes before the elevated plus-maze test (n=11-15).

δ opioid receptor = molecular target: T2, δ opioid receptor (Mus musculus, UniProt P32300); test: Elevated plus-maze test with opioid receptor antagonist naltrindole; assay type: in vivo; conditions: elevated plus-maze with or without naltrindole given 50 min before test; peptide oral 30 min before
T2 construct: orally administered as a sample to mice 30 minutes before an elevated plus-maze test, with or without naltrindole; from tissue; host or cells: whole living animal (ddY mouse, male)
T2 sequence (P32300 whole entry): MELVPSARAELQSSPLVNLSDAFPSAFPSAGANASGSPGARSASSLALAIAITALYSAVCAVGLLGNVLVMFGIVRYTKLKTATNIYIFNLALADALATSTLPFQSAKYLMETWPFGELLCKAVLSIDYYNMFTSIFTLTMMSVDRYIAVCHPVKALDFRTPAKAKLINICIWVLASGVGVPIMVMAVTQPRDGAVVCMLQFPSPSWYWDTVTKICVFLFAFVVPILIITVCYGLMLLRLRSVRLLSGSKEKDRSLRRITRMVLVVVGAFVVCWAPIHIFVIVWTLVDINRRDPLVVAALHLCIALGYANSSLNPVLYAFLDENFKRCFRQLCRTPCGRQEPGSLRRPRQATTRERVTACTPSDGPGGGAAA
Text: as §1, §2
The peptide YHIEPV (SEQ ID NO:2) was orally administered as a sample to mice 30 minutes before an elevated plus-maze test, with or without WAY100135, an antagonist selective for 5-HT1A receptor (n=13-15). WAY100135 was administered 50 minutes before the elevated plus-maze test. […]

[5] = Example 16, oral, SYLPPLTT 0.3, 1, SYLPPLT 0.1, 0.3, 1, YHIEPV 1, 3, 10, diazepam 1, 3, 10 mg/kg, result not split by dose
[6] = oral 0.1 mg/kg, 30 min before 5-min test, vs vehicle saline
[7] = oral 0.3 mg/kg, 30 min before 5-min test, vs vehicle saline
[8] = oral 1 mg/kg, 30 min before 5-min test, vs vehicle saline
[9] = oral 10 mg/kg, 30 min before 5-min test, vs vehicle saline

CN1C(=O)CN=C(c2ccccc2)c2cc(Cl)ccc21 [diazepam, Diazepam, reference compound]
ratio of an open arm residence time (ddY mouse; [5]): increase observed

CN(C)CCCN1c2ccccc2CCc2ccccc21 [imipramine]
immobility time (ddY mice [1]): reduces immobility time

FLLVK
ratio of an open arm residence time (ddY mouse; [6]): increased

LLVK
ratio of an open arm residence time (ddY mouse; [6]): increased

LVK
ratio of an open arm residence time (ddY mouse; [6]): increased

NYLLVKG
ratio of an open arm residence time (ddY mouse; [6]): increased

Rubiscolin-6
anxiolytic effect [2]: has an anxiolytic effect

SYLPPL
ratio of an open arm residence time (ddY mouse; [7]): increased | ratio of an open arm residence time (ddY mouse; [8]): increased | ratio of an open arm residence time (ddY mouse; [9]): increased

SYLPPLT
ratio of an open arm residence time (ddY mouse; [5]): increased | ratio of an open arm residence time (ddY mouse; [6]): increased | ratio of an open arm residence time (ddY mouse; [7]): increased | ratio of an open arm residence time (ddY mouse; [8]): statistically significant | immobility time (ddY mice [3]; oral 0.03 mg/kg): decrease | immobility time (ddY mice [3]; oral 0.1 mg/kg): decrease | immobility time (ddY mice [3]; oral 0.3 mg/kg): decrease | anxiolytic-like effect mediated by serotonin 5-HT1A receptor [4]: mediated by activation of serotonin 5-HT1A receptor

SYLPPLTT
ratio of an open arm residence time (ddY mouse; [5]): increased | ratio of an open arm residence time (ddY mouse; [7]): increased | ratio of an open arm residence time (ddY mouse; [8]): statistically significant | anxiolytic-like effect mediated by serotonin 5-HT1A receptor [4]: mediated by activation of serotonin 5-HT1A receptor

WLLVK
ratio of an open arm residence time (ddY mouse; [6]): increased

YHIEPV
ratio of an open arm residence time (ddY mouse; [5]): increased | ratio of an open arm residence time (ddY mouse; [8]): increased | ratio of an open arm residence time (ddY mouse; oral 3 mg/kg, 30 min before 5-min test, vs vehicle saline): statistically significant | ratio of an open arm residence time (ddY mouse; [9]): statistically significant | anxiolytic-like effect mediated by serotonin 5-HT1A receptor [4]: not mediated by activation of serotonin 5-HTopio1A receptor | anxiolytic-like effect mediated by opioid receptor (δ opioid receptor): mediated by activation 8-opioid receptor

YLL (NYLLVKG)
ratio of an open arm residence time (ddY mouse; [6]): increased

YLLAVK
ratio of an open arm residence time (ddY mouse; [5]): increased | ratio of an open arm residence time (ddY mouse; [6]): increased

YLLNNK
ratio of an open arm residence time (ddY mouse; [6]): increased

YLLV
ratio of an open arm residence time (ddY mouse; [6]): increased

YLLVK
ratio of an open arm residence time (ddY mouse; oral 0.03 mg/kg, 30 min before 5-min test, vs vehicle saline): significantly increased | ratio of an open arm residence time (ddY mouse; oral 0.1 mg/kg, 30 min before 5-min test, vs vehicle saline, 0.1 mg/kg): significantly increased

YLLVR
ratio of an open arm residence time (ddY mouse; [6]): increased

YLVK
ratio of an open arm residence time (ddY mouse; [6]): increased
